The text below walks through data of patent US20260209304A1, “INSULIN RECEPTOR ANTAGONIST” (The Board of Trustees of the Leland Stanford Junior …, priority 2022, published 2026).

The EC50 is the midpoint of the concentration-response curve. Low readings indicate higher potency in that assay, high ones lower potency in that assay.

One assay addresses insulin receptor (IR) (Homo sapiens, UniProt P06213). Nature of the assay: Binding affinity of insulin-core mutants relative to the A13R mutation.
The target of assay [1] is T1, human insulin receptor (Homo sapiens, UniProt P06213). In words: Cell-based pAKT (Ser473) assay in NIH 3T3 cells overexpressing human insulin receptor. Further details: expressed in transfected cells; host or cells: NIH 3T3 cell line derived from IGF-1R knockout mice (gift from A. Morrione, Thomas Jefferson University).
Procedure: All the values are shown as mean±SD (n=4). EC50 and IC50 values were calculated by Prism 9 (GraphPad Software, California, USA) with nonlinear regression curve fitting of dose-response asymmetric equation.
Cell-based pAKT and phosphor-IR-beta Assays. The bioactivities of the analogs were evaluated through a cell-based pAKT (Ser473) assay or phospho-IR-beta (Tyr1150/1151) assay. Endogenous levels of pAKT or phosphor-IR-beta were measured in a human insulin receptor overexpressed NIH 3T3 cell line, derived from IGF-1R knockout mice (a generous gift from A. Morrione, Thomas Jefferson University). Cells were cultured in DMEM (Gibco) with 10% fetal bovine serum (FBS, Gibco), 100 U/mL penicillin-streptomycin (Gibco), 2 mg/mL puromycin (Thermo Fisher Scientific), and 1 mg/mL normocin (InvivoGen) at 37° C. under 5% CO2. For the assays, 30,000 cells per well and 100 μl per well, were plated in a 96-well plate with culture media containing 1% FBS. 20 hours later, the media was removed and 50 μl of culture media with different concentrations of native insulin or analog was pipetted into each well. […] After 4 hours of incubation, the plate was read in a SpectraMax iD5 plate reader (Molecular Devices) and the data were processed according to the manufacturer's protocol. […]
In assay [2] the target is T1, human insulin receptor. In words: cell-based or functional assay.

Positions of bridges follow the written chain, without caps; N, C: chain ends. Chains are numbered I, II in the order given. No end group written: not given here.

Take “I: GIVEQCCHRICSLYQLENYCGGSLPETGGGSLEEEWAQIQSEVWGRGSPSY / II: FVNQHLCGSELVEALYLVCGERGFFYTPK (disulfide I:6-I:11, I:7-II:7, I:20-II:19) [Ins-AC-10-11]”: on insulin receptor (IR), the “binding affinity relative to the A13R mutation” value was “increased”. This molecule showed an EC50 on human insulin receptor [1] of 11.5 pM.
On the same counts, the results for “I: FVNQHLCGSELVEALYLVCGERGFFYTPK / II: GIVEQCCHRICSLYQLENYCGGSLPETGG (disulfide I:7-II:7, I:19-II:20, II:6-II:11) [Ins-AC-10-9]” are “increased” and 562 pM.

B1: Ins-AC-10-9 (designed binder)
chain 1: GIVEQCCHRICSLYQLENYCGGSLPETGG
chain 2: FVNQHLCGSELVEALYLVCGERGFFYTPK
Regarding B1, the Agonist Activity (nM), cell-based pAKT assay in the assay with human insulin receptor [2] was found to be 0.562 nM.

B2: Ins-AC-10-11 (designed binder)
chain 1: GIVEQCCHRICSLYQLENYCGGSLPETGGGSLEEEWAQIQSEVWGRGSPSY
chain 2: FVNQHLCGSELVEALYLVCGERGFFYTPK
B2: in the assay with human insulin receptor [2], the Agonist Activity (nM), cell-based pAKT assay was found to be 0.0115 nM and the Antagonist Activity (nM), cell-based pAKT assay is 0.5 nM.
